Target: T1, recombinant human mGluR2 (Homo sapiens, UniProt Q14416)
T1 construct: expressed in transfected cells
Test: FLIPR Ca2+ mobilization assay, potentiation of glutamate (EC20) response
Assay type: cell-based
Details: CHO dhfr- cells expressing human mGluR2 and Gα16, EC20 glutamate (900 nM)
Method: Potencies are determined as follows. The compounds of the present invention may be tested in a fluorescence laser imaging plate reader (FLIPR) based assay. This assay is a common functional assay to monitor Ca^2+ mobilization in whole cells expressing recombinant receptor coupled with a promiscuous G-protein. CHO dhfr- cells stably expressing recombinant human mGluR2 and Gα16 loaded with Fluo-4 AM (Invitrogen, Carlsbad Calif.) are treated with varying concentrations of compounds and the Ca^2+ response is monitored on a FLIPR384 (Molecular Devices, Sunnydale Calif.) for agonist activity. The potentiation response is monitored after a subsequent addition of an EC20 concentration of glutamate (900 nM). The maximum calcium response at each concentration of compound for agonism or potentiation are plotted as dose responses curves fitted with a four parameters logistic equation giving EC50 and Hill coefficient using the iterative non linear curve fitting software program.

T1 sequence (Q14416 19-872): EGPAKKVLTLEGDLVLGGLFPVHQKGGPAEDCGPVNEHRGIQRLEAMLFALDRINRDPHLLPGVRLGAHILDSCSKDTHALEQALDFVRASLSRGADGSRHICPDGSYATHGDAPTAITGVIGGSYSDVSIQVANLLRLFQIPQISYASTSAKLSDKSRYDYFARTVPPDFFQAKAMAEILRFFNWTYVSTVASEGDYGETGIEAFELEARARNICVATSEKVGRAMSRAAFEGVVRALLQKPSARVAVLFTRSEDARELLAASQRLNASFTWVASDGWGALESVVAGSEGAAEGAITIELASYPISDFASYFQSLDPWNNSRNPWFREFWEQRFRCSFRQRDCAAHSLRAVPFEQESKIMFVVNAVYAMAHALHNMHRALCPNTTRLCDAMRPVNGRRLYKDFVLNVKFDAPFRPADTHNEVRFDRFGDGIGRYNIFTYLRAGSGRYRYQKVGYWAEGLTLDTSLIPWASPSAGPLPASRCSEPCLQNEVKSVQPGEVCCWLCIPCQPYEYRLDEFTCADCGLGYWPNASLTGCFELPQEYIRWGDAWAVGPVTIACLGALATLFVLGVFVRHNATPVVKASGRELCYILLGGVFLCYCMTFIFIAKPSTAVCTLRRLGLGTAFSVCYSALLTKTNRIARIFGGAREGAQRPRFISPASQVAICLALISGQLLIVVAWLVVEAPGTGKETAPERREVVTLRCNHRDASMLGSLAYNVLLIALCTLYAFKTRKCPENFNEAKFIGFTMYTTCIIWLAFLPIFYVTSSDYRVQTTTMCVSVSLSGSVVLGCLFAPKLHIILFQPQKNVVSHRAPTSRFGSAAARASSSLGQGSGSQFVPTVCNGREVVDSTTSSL

CC(C)(C)Cn1nnc2c(Br)c(OCc3cccc(-c4ccc(O)c(C(=O)O)c4)c3)ccc21 [Example 3-3, 3′-({[4-bromo-1-(2,2-dimethylpropyl)-1H-benzotriazol-5-yl]oxy}methyl)-4-hydroxy-biphenyl-3-carboxylic acid]
EC50: 3.5 nM

O=C1CCC(Oc2ccc3c(nnn3CC3CC3)c2Br)CC12CC2 (centres unmarked) [Example 10-171, 7-{[4-bromo-1-(cyclopropyl-methyl)-1H-benzotriazol-5-yl]oxy}spiro[2.5]octan-4-one]
EC50: 87 nM

CC(C)(C)/C(COc1ccc2c(nnn2CC2CC2)c1Br)=N/O [Example 9-1, 1-{[4-Bromo-1-(cyclopropylmethyl)-1H-benzotriazol-5-yl]oxy}-N-hydroxy-3,3-dimethylbutan-2-imine]
EC50: 84 nM

CC(C)(C)C(O)COc1ccc2c(nnn2CC2CC2)c1Br (racemic) [Example 8-1, (±)-1-{[4-Bromo-1-(cyclopropylmethyl)-1H-benzotriazol-5-yl]oxy}-3,3-dimethylbutan-2-ol]
EC50: 72 nM

COc1ccc2c(nnn2CCCC(F)(F)F)c1Br [Example 1-11, 4-bromo-5-methoxy-1-(4,4,4-trifluorobutyl)-1H-benzotriazole]
EC50: 51 nM

CC(C)(C)Cn1nnc2c(Br)c(OCc3cccc(N4CCCCC4)n3)ccc21 [Example 4-27, 4-bromo-1-(2,2-dimethylpropyl)-5-[(6-piperidin-1-ylpyridin-2-yl)methoxy]-1H-benzotriazole]
EC50: 288 nM

Brc1c(OCC2CCC2)ccc2c1nnn2CC1CC1 [Example 10-140, 4-bromo-5-(cyclobutylmethoxy)-1-(cyclopropylmethyl)-1H-benzotriazole]
EC50: 39 nM

Cc1cnc(C#N)c(-c2cccc(COc3ccc4c(nnn4CC(C)(C)C)c3Br)c2)c1 [Example 3-26, 3-[3-({[4-bromo-1-(2,2-dimethylpropyl)-1H-benzotriazol-5-yl]oxy}methyl)phenyl]-5-methylpyridine-2-carbonitrile]
EC50: 16 nM

FC(F)CN1CCC(Oc2ccc3c(nnn3CC3CC3)c2Br)CC1 [Example 10-47, 4-bromo-1-(cyclopropylmethyl)-5-{[1-(2,2-difluoroethyl)piperidin-4-yl]oxy}-1H-benzotriazole]
EC50: 424 nM

CCOc1ccc2c(nnn2CC2CC2)c1Br [Example 10-253, 4-bromo-1-(cyclopropylmethyl)-5-ethoxy-1H-benzotriazole]
EC50: 530 nM

FC(F)(F)c1c(OCc2ccccc2)ccc2c1nnn2CC1CC1 [Example 11-1, 5-(Benzyloxy)-1-(cyclopropylmethyl)-4-(trifluoromethyl)-1H-benzotriazole]
EC50: 9 nM

COc1ccc2c(nnn2CC2CCCC2)c1Br [Example 1-3, 4-bromo-1-(cyclopentylmethyl)-5-methoxy-1H-benzotriazole]
EC50: 93 nM

CC(C)(C)OC(=O)N1CCC(COc2ccc3c(nnn3CC3CC3)c2Cl)CC1 [Example 4-63, tert-butyl 4-({[4-chloro-1-(cyclopropylmethyl)-1H-benzotriazol-5-yl]oxy}methyl) piperidine-1-carboxylate]
EC50: 34 nM

CC1(COc2ccc3c(nnn3CC3CC3)c2C(F)(F)F)CCN(C(=O)CO)CC1 [Example 4-79, 2-[4-({[1-(cyclopropylmethyl)-4-(trifluoromethyl)-1H-benzotriazol-5-yl]oxy}methyl)-4-methyl-piperidin-1-yl]-2-oxoethanol]
EC50: 7 nM

CC(C)(C)C(=O)COc1ccc2c(nnn2CC2CC2)c1Br [Example 7-1, 1-{[4-Bromo-1-(cyclopropylmethyl)-1H-benzotriazol-5-yl]oxy}-3,3-dimethylbutan-2-one]
EC50: 34 nM

FC(F)(F)CN1CCN(CCOc2ccc3c(nnn3CC3CC3)c2Br)CC1 [Example 10-220, 4-bromo-1-(cyclopropylmethyl)-5-{2-[4-(2,2,2-trifluoroethyl)piperazin-1-yl]ethoxy}-1H-benzotriazole]
EC50: 222 nM

CC(C)(C)Cn1nnc2c(Br)c(OCc3ccccc3Cl)ccc21 [Example 4-45, 4-bromo-5-[(2-chlorobenzyl)oxy]-1-(2,2-dimethylpropyl)-1H-benzotriazole]
EC50: 65 nM

N#CCOc1ccc2c(nnn2CC2CC2)c1Br [Example 5-1, {[4-Bromo-1-(cyclopropylmethyl)-1H-benzotriazol-5-yl]oxy}acetonitrile]
EC50: 281 nM

Brc1c(OCCn2cccn2)ccc2c1nnn2CC1CC1 [Example 10-275, 4-bromo-1-(cyclopropylmethyl)-5-[2-(1H-pyrazol-1-yl)ethoxy]-1H-benzotriazole]
EC50: 214 nM

CC(C)[C@@H](C)n1nnc2c(Br)c(O)c(Br)cc21 [Example 2-4, 4,6-dibromo-1-[(1R)-1,2-dimethylpropyl]-1H-benzotriazol-5-ol]
EC50: 373 nM

CC(C)(C)Cn1nnc2c(Br)c(OCc3ncccn3)ccc21 [Example 4-7, 4-bromo-1-(2,2-dimethyl-propyl)-5-(pyrimidin-2-ylmethoxy)-1H-benzotriazole]
EC50: 521 nM

COc1cccc(COc2ccc3c(nnn3CC3CC3)c2Br)n1 [Example 6-1, 4-Bromo-1-(cyclopropylmethyl)-5-[(6-methoxypyridin-2-yl)methoxy]-1H-benzotriazole]
EC50: 10 nM

Brc1c(OCC2COCCO2)ccc2c1nnn2CC1CC1 (centres unmarked) [Example 10-73, 4-bromo-1-(cyclopropylmethyl)-5-(1,4-dioxan-2-ylmethoxy)-1H-benzotriazole]
EC50: 415 nM

CCOc1ccc2c(nnn2CC(C)(C)C)c1Br [Example 1-4, 4-bromo-1-(2,2-dimethylpropyl)-5-ethoxy-1H-benzotriazole]
EC50: 32 nM

CC(C)(C)Cn1nnc2c(Br)c(OCc3cccc4ccnn34)ccc21 [Example 4-5, 4-bromo-1-(2,2-dimethylpropyl)-5-(pyrazolo[1,5-a]pyridin-7-ylmethoxy)-1H-benzotriazole]
EC50: 42 nM

CC(Oc1ccc2c(nnn2CC(C)(C)C)c1Br)c1ccccc1 (centres unmarked) [Example 3-15, 4-bromo-1-(2,2-dimethylpropyl)-5-(1-phenylethoxy)-1H-benzotriazole]
EC50: 91 nM

C=CCOc1ccc2c(nnn2CC2CC2)c1Br [Example 10-120, 4-bromo-1-(cyclopropylmethyl)-5-(prop-2-en-1-yloxy)-1H-benzotriazole]
EC50: 60 nM

Brc1c(OCc2cscn2)ccc2c1nnn2CC1CC1 [Example 10-56, 4-bromo-1-(cyclopropylmethyl)-5-(1,3-thiazol-4-ylmethoxy)-1H-benzotriazole]
EC50: 150 nM

C[C@H](O)C(=O)N1CCC(COc2ccc3c(nnn3CC3CC3)c2Br)CC1 [Example 4-65, (2S)-1-[4-({[4-bromo-1-(cyclopropylmethyl)-1H-benzotriazol-5-yl]oxy}methyl)piperidin-1-yl]-1-oxopropan-2-ol]
EC50: 188 nM

CC(C)(C)Cn1nnc2c(Br)c(OCc3cccc(-c4c[nH]nc4C#N)c3)ccc21 [Example 3-34, 4-[3-({[4-bromo-1-(2,2-dimethylpropyl)-1H-benzotriazol-5-yl]oxy}methyl)phenyl]-1H-pyrazole-3-carbonitrile]
EC50: 49 nM

CC(C)(C)OC(=O)N1CCC(COc2ccc3c(nnn3CC3CC3)c2Br)C1 (centres unmarked) [Example 4-67, tert-butyl 3-({[4-bromo-1-(cyclopropylmethyl)-1H-benzotriazol-5-yl]oxy}methyl) pyrrolidine-1-carboxylate]
EC50: 20 nM

CC(C)(C)Cn1nnc2c(Br)c(OCc3ncccc3F)ccc21 [Example 4-42, 4-bromo-1-(2,2-dimethyl-propyl)-5-[(3-fluoropyridin-2-yl)methoxy]-1H-benzotriazole]
EC50: 41 nM
